Measured values as given in ChEMBL document CHEMBL3611969, “The effect of complexation of 3-formylrifamycin SV macrocyclic ether derivatives with metal cations and small nitrogen-containing organic molecules on antibacterial activity against S. aureus and S. epidermidis” (Bioorg Med Chem Lett, 2015).
In brackets after ≈: the same amount, converted by molar mass.

How the values were obtained:
Staphylococcus aureus [1] = assay: Antibacterial activity against Staphylococcus aureus ATCC 6538 after 18 hrs by serial microdilution method; type: functional; conditions: ATCC 6538, 18 h
Staphylococcus aureus [2] = assay: Antibacterial activity against Staphylococcus aureus ATCC 4163 after 18 hrs by serial microdilution method; type: functional; conditions: ATCC 4163, 18 h
Staphylococcus aureus [3] = assay: Antibacterial activity against Staphylococcus aureus ATCC 25923 after 18 hrs by serial microdilution method; type: functional; conditions: ATCC 25923, 18 h
[4] = test system: Staphylococcus epidermidis; assay: Antibacterial activity against Staphylococcus epidermidis ATCC 12228 after 18 hrs by serial microdilution method; type: functional; conditions: ATCC 12228, 18 h
[5] = test system: Staphylococcus epidermidis; assay: Antibacterial activity against Staphylococcus epidermidis ATCC 49134 after 18 hrs by serial microdilution method; type: functional; conditions: ATCC 49134, 18 h
Staphylococcus aureus [6] = assay: Antibacterial activity against Staphylococcus aureus ATCC 6538 after 18 hrs by serial microdilution method in presence of Li+; type: functional; conditions: ATCC 6538, 18 h
Staphylococcus aureus [7] = assay: Antibacterial activity against Staphylococcus aureus ATCC 6538 after 18 hrs by serial microdilution method in presence of Na+; type: functional; conditions: ATCC 6538, 18 h
Staphylococcus aureus [8] = assay: Antibacterial activity against Staphylococcus aureus ATCC 4163 after 18 hrs by serial microdilution method in presence of Li+; type: functional; conditions: ATCC 4163, 18 h
Staphylococcus aureus [9] = assay: Antibacterial activity against Staphylococcus aureus ATCC 4163 after 18 hrs by serial microdilution method in presence of Na+; type: functional; conditions: ATCC 4163, 18 h
Staphylococcus aureus [10] = assay: Antibacterial activity against Staphylococcus aureus ATCC 25923 after 18 hrs by serial microdilution method in presence of Li+; type: functional; conditions: ATCC 25923, 18 h
Staphylococcus aureus [11] = assay: Antibacterial activity against Staphylococcus aureus ATCC 25923 after 18 hrs by serial microdilution method in presence of Na+; type: functional; conditions: ATCC 25923, 18 h
[12] = test system: Staphylococcus epidermidis; assay: Antibacterial activity against Staphylococcus epidermidis ATCC 12228 after 18 hrs by serial microdilution method in presence of Li+; type: functional; conditions: ATCC 12228, 18 h
[13] = test system: Staphylococcus epidermidis; assay: Antibacterial activity against Staphylococcus epidermidis ATCC 12228 after 18 hrs by serial microdilution method in presence of Na+; type: functional; conditions: ATCC 12228, 18 h
[14] = test system: Staphylococcus epidermidis; assay: Antibacterial activity against Staphylococcus epidermidis ATCC 49134 after 18 hrs by serial microdilution method in presence of Li+; type: functional; conditions: ATCC 49134, 18 h
[15] = test system: Staphylococcus epidermidis; assay: Antibacterial activity against Staphylococcus epidermidis ATCC 49134 after 18 hrs by serial microdilution method in presence of Na+; type: functional; conditions: ATCC 49134, 18 h
[16] = Solubility of the compound in water at pH 7; type: physicochemical
[17] = Octanol-water partition coefficient, log P of the compound by UV-vis method; type: physicochemical
[18] = Solubility of the compound in water at pH 7 in presence of Li+; type: physicochemical
[19] = Solubility of the compound in water at pH 7 in presence of Na+; type: physicochemical
[20] = Octanol-water partition coefficient, log P of the compound by UV-vis method in presence of Li+; type: physicochemical
[21] = Octanol-water partition coefficient, log P of the compound by UV-vis method in presence of Na+; type: physicochemical

| Compound | MIC (Staphylococcus aureus [1]) [µg/mL] | MIC (Staphylococcus aureus [2]) [µg/mL] | MIC (Staphylococcus aureus [3]) [µg/mL] | MIC [4] [µg/mL] | MIC [5] [µg/mL] | further results |
| --- | --- | --- | --- | --- | --- | --- |
| [Na+].[O-][Cl+3]([O-])([O-])[O-] [SODIUM PERCHLORATE] | > 4 | > 4 | > 4 | > 4 | > 4 | – |
| NNC(=O)c1ccncc1 [ISONIAZID] | > 4 | > 4 | > 4 | > 4 | > 4 | – |
| CO[C@H]1/C=C/O[C@@]2(C)Oc3c(C)c(O)c4c(O)c(c(CNCC5COCCOCCOCCOCCOCCO5)c(O)c4c3C2=O)NC(=O)/C(C)=C\C=C\[C@H](C)[C@H](O)[C@@H](C)[C@@H](O)[C@@H](C)[C@H](OC(C)=O)[C@@H]1C (stereo partly specified) | 1 (≈ 0.997 µM) | 1 (≈ 0.997 µM) | 2 (≈ 1.99 µM) | 1 (≈ 0.997 µM) | 1 (≈ 0.997 µM) | MIC (Staphylococcus aureus [6]): 1 µg/mL; MIC (Staphylococcus aureus [7]): 2 µg/mL; MIC (Staphylococcus aureus [8]): 1 µg/mL; MIC (Staphylococcus aureus [9]): 2 µg/mL; MIC (Staphylococcus aureus [10]): 2 µg/mL; MIC (Staphylococcus aureus [11]): 2 µg/mL; MIC [12]: 1 µg/mL; MIC [13]: 1 µg/mL; MIC [14]: 1 µg/mL; MIC [15]: 1 µg/mL; solubility [16]: 1000 µg/mL (≈ 997 µM); logP [17]: 1.76; solubility [18]: 670 µg/mL; solubility [19]: 600 µg/mL; logP [20]: 1.09; logP [21]: 1.13 |
| NCc1ccc(F)cc1 | > 4 | > 4 | > 4 | > 4 | > 4 | – |
